# Patent US7803765B2, “Methods of constructing biodiverse gene fragment libraries and biological modulators isolated therefrom” (Phylogica Limited, priority 2004, dated 2010)
# Where no end group is shown, it is not given here.
# T1: Id1/E47 interaction (Homo sapiens, UniProt P15923+P41134)
# T1 construct: expressed in transfected cells; host or cells: Saccharomyces cerevisiae strain PRT480
# T1 sequence (P41134 1-155): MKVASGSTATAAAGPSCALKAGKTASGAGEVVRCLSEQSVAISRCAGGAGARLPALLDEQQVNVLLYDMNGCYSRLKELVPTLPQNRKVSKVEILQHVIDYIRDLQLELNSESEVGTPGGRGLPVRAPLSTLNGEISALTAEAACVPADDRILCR
# T1 sequence (P15923 1-651 isoform P15923-2): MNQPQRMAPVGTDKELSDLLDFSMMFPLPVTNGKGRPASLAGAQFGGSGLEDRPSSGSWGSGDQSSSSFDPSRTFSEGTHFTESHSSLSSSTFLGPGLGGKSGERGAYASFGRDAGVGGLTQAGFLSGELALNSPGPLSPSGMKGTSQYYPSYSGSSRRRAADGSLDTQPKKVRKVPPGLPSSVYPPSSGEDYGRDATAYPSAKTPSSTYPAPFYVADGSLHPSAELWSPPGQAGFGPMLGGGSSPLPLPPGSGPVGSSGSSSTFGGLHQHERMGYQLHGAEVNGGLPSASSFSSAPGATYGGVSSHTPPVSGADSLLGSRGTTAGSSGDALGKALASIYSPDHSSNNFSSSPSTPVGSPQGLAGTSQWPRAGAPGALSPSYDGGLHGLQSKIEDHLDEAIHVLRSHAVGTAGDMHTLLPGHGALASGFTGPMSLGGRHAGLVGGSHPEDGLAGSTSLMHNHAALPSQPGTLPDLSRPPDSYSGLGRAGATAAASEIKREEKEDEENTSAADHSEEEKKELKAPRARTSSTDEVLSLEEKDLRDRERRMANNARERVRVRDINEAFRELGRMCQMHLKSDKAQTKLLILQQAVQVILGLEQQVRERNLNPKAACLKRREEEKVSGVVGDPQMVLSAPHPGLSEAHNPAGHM
# How the values were obtained:
# [1] = system: SCL/E47 interaction; assay: reverse two-hybrid screen for antagonists of the SCL/E47 interaction in yeast; assay type: cell-based; conditions: re-screened clones
# Source text: The nucleic acid encoding the E47 protein was cloned into the bait vector pDD (SEQ NO: 61; FIG. 6) in operable connection with the LexA DNA binding domain. The pDD vector also contains a nucleic acid encoding the HIS3 gene (FIG. 6).
# These vectors were transformed into the PRT 480 yeast strain (which contains two LexA-CYH2 chimeric reporter genes and two LexA-URA3 counter selectable reporter genes).
# The process of screening the library is represented schematically in FIG. 7. […] Approximately 300,000 diploids were plated onto 30 cm plates containing complete synthetic media lacking histidine and tryptophan (ie., HW media), and supplemented with 0.06% (w/v) galactose/0.04% 5-FOA and glucose.
# The FOA-resistant colonies were replica-plated from the master-plate onto plates containing HWU media, or media lacking histidine, tryptophan and leucine (ie. HWL media). The replica-plate media also contained various concentrations of galactose.
# Library plasmids were re-transformed into strain PRT51, and the resultant yeast cells were again mated with strain PRT 480 SCL/E47 haploids. Diploids were re-screened for their ability to block the SCL/E47 interaction, by plating in the forward direction on plates containing HWU or HWL media supplemented with various concentrations of galactose.
# [2] = target: T1, Id1/E47 interaction; assay: specificity of blocking: two-hybrid in strain PRT480 expressing ID and E47; assay type: cell-based; conditions: yeast strain PRT480, specificity control
# Experimental: (§1) Subsequently, the specificity of blocking was assayed, by mating those strains that did recapitulate the blocked phenotype into a strain PRT480 expressing two interacting proteins selected from the group consisting of: (i) E2,2 2F and SCL; and (ii) ID and E47.
# [3] = target: T2, SCL/E2.22F interaction (Homo sapiens, UniProt P15884+P17542); assay: specificity of blocking: two-hybrid in strain PRT480 expressing E2.22F and SCL; assay type: cell-based; conditions: yeast strain PRT480, specificity control
# T2 construct: expressed in transfected cells; host or cells: Saccharomyces cerevisiae strain PRT480
# T2 sequence (P17542 whole entry): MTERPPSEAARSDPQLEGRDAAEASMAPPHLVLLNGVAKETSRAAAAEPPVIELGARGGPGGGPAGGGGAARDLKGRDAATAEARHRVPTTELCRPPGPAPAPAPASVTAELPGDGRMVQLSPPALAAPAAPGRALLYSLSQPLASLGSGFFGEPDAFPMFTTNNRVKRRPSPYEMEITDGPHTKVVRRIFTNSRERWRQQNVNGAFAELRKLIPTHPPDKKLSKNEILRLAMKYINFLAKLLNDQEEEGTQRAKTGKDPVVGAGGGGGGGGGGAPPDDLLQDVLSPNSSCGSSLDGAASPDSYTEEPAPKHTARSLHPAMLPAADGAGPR
# T2 sequence (P15884 whole entry): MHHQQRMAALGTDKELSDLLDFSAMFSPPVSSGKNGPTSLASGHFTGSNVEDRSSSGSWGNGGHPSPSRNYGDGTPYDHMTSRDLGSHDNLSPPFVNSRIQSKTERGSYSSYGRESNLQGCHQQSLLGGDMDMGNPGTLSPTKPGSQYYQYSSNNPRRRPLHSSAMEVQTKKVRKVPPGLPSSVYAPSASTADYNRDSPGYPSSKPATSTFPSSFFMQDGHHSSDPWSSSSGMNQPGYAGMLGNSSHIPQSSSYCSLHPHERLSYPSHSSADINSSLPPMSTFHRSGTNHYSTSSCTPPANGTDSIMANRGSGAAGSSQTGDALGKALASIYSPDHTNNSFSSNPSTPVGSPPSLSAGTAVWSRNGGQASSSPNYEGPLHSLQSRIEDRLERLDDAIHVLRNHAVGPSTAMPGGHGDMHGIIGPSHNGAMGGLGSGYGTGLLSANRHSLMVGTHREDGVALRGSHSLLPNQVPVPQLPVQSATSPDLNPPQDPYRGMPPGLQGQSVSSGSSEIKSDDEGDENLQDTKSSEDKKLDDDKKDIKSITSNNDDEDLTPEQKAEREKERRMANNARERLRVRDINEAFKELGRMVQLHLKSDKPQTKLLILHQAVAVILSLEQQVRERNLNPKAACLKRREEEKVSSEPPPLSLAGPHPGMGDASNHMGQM
# Experimental: as §1
# [4] = system: anti-Der p 1 monoclonal antibody 2C7; assay: T7-DELFIA binding of phage-displayed peptides to panning antibody 2C7; conditions: 50 μl lysate in the standard T7-DELFIA; 500 ng/well 2C7
# Experimental: The monoclonal antibody (approximately 10 μg) was adsorbed to a Petri dish and the amplified phage display library brought into contact with the adsorbed antibody.
# The eluate after round three was amplified and ninety-nine individual T7 clones were tested for binding to the panning antibody 2C7 using a dissociation-enhanced ianthinide fluoroimmunoassay (DELFIA) with 500 ng/well 2C7. Assays were performed essentially according to manufacturer's instructions (Perkin Elmer Life Sciences). The first ligand used in the DELFIA was T7lysate (ie the library) (1:2 in assay buffer); second ligand: SIGMA biotinylated anti-T7 monoclonal antibody 1:10,000 (mouse), Strep-Eur+enhancement solution).
# [5] = system: monoclonal antibody 2C7; assay: competition DELFIA of 2C7pan clones binding to 2C7; conditions: for inhibition of clone binding to 2C7 by recombinant Der p 1: competitor recombinant Der p 1
# Source text: Competition DELIFAs were then used to study the interaction between the monoclonal antibody and the peptides identified, using recombinant Der p 1 or the epitope of the 2C7 antibody (GST-P1fragment 98-140 […]) as a competitor.
# [6] = system: Der p 1; assay: immunization of mice with 2C7pan phage clones, serum tested by DELFIA and competitive DELFIA; assay type: in vivo; conditions: for anti-Der p 1 immune response in immunized mice: 10^11 phage particles in Freunds complete adjuvant, bled after first booster, DELFIA; for inhibition of immune serum binding to Der p 1 by recombinant Der p 1: competitive DELFIA, BSA as negative control
# Experimental: The clones, 2C7pan clones 9, 26 and 42, described in Example 8 were then used to immunize mice. Phage were purified by CsCl gradient centrifugation and then used to immunize mice. Each injection consisted of 10^11 phage particles suspended in Freunds complete adjuvant. After the first booster mice were bled and tested by DELFIA for binding to Der p 1. Furthermore, the specificity of the immune response for Der p 1 was tested using competitive DELFIA.
Molecule,Target interaction SCL/E47 blocked [1],Target interaction Id1/E47 blocked [2],Target interaction SCL/E2.22F blocked [3],TRF (time resolved fluorometry) binding to 2C7 [4],inhibition of clone binding to 2C7 by recombinant Der p 1 [5],anti-Der p 1 immune response in immunized mice [6],inhibition of immune serum binding to Der p 1 by recombinant Der p 1 [6],inhibition of clone binding to 2C7 by GST-P1fragment 98-140 ([5]; competitor GST-P1fragment 98-140 (2C7 epitope))
"BGF 05: non-specific blocker clone; fusion peptide SEQ ID NO: 63, fragment-encoded SEQ ID NO: 65; H. influenzae fragment (MGKPIPNPLLGLDSTQAMGAPPKKKRKVAEFARTTTTRLINQSVVRKIWLYRDAR)",+,+,+,,,,,
"BGF 06: SCL/E47 peptide blocker; fusion peptide SEQ ID NO: 67, fragment-encoded SEQ ID NO: 69; A. aeolicus fragment (MGKPIPNPLLGLDSTQAMGAPPKKKRKVAEFRSDYKDDDDKAYHIIAVCFLIKVS)",+,−,−,,,,,
"BGF 13: SCL/E47 peptide blocker; fusion peptide SEQ ID NO: 71, fragment-encoded SEQ ID NO: 73; H. influenzae fragment (MGKPIPNPLLGLDSTQAMGAPPKKKRKVAEFGFCSNQMREM)",+,−,−,,,,,
"BGF 24: SCL/E47 peptide blocker; fusion peptide SEQ ID NO: 75, fragment-encoded SEQ ID NO: 77; T. maritima fragment (MGKPIPNPLLGLDSTQAMGAPPKKKRKVAEFRSDYKDDDDKLIKHHWVLSIITTASR)",+,−,−,,,,,
GDP R T H R (GDPRTHR; numbers in words are those of the source; also: displayed on T7 phage) [Clone 2c7pan26],,,,8500 TRF,specifically inhibited,an anti-Der p 1 immune response was induced,inhibited by the addition of recombinant Der p 1,
GDPN S A S G T A (GDPNSASGTA; numbers in words are those of the source; also: displayed on T7 phage) [Clone 2c7pan9],,,,17000 TRF,specifically inhibited,an anti-Der p 1 immune response was induced,inhibited by the addition of recombinant Der p 1,
GDPN S R G K S R E Y L S (GDPNSRGKSREYLS; numbers in words are those of the source; also: displayed on T7 phage) [Clone 2c7pan14],,,,1800 TRF,specifically inhibited,,,
GDPN S S S V D K L G Y W R V T E S S N E (GDPNSSSVDKLGYWRVTESSNE; numbers in words are those of the source; also: displayed on T7 phage) [Clone 2c7pan42],,,,64000 TRF,only partially inhibited,an anti-Der p 1 immune response was induced,inhibited by the addition of recombinant Der p 1,higher levels of inhibition
GDPN S S T S P R (GDPNSSTSPR; numbers in words are those of the source; also: displayed on T7 phage) [Clone 2c7pan8],,,,1900 TRF,specifically inhibited,,,
"BGF 35: SCL/E47 peptide blocker; fusion peptide SEQ ID NO: 79, fragment-encoded SEQ ID NO: 81; H. influenzae fragment (peptide) MGKPIPNPLLGLDSTQAMGAPPKKKRKVAEFQGRRRQGLSINQWLEKYGYIEMQGNETFKLAVRELSNVVEETLLANNLDKKDLDWLVVVVLVV",+,−,−,,,,,
